Results on eight compounds are retold here after US20160045463A1, “USE OF METALLOPROTEASE INHIBITORS IN THE TREATMENT OF POLYCYSTIC LIVER DISEASES” (UNIVERSIDAD DE SALAMANCA, priority 2012, published 2016).

What all share (format): cell-based
For assay [1], the system named is normal human cholangiocytes. Kind of assay: MMP mRNA expression by quantitative PCR in the presence of IL-6, IL-8 or 17β-estradiol. Particulars: for expression of MMP-2 (mRNA): FIG. 10; for expression of MMP-3 (mRNA): FIG. 11; for expression of MMP-7 (mRNA): FIG. 12; for expression of MMP-10 (mRNA): FIG. 13; for expression of MMP-11 (mRNA): FIG. 14; for expression of MMP-13 (mRNA): FIG. 15; for expression of MMP-15 (mRNA): FIG. 16; for expression of MMP-17 (mRNA): FIG. 17; for expression of MMP-27 (mRNA): FIG. 18. Here is the method: (§1) To determine if the metalloproteolytic hyperactivity of polycystic human cholangiocytes is associated with changes in the pattern of expression of MMPs and their natural inhibitors, TIMPs, at the level of mRNA, this was analysed by quantitative PCR (i.e. qPCR) using the cDNA previously obtained as explained in Example 1, the gene expression of a total of 22 genes, including those containing the members of the metalloprotease family: MMP-1, MMP-2, MMP-3, MMP-7, MMP-8, MMP-9, MMP-10, MMP-11, MMP-13, MMP-14, MMP-15, MMP-16, MMP-17, MMP-18, MMP-24, MMP-25, MMP-26, MMP-27 and their natural inhibitors: TIMP-1, TIMP-2, TIMP-3, TIMP-4. Briefly, 4 μl of the cDNA were taken and 1.8 μl of a 10 μM solution of each primer (final concentration 0.9 μM) and 10 μl of FastSYBR® Green (Applied Biosystems) were added, adding sterile water (Braun) to reach a final volume of 20 μl. The amplification reactions were performed in a StepOne Plus (Applied Biosystems) thermo cycler following the standard protocol conditions for FastSYBR Green®.
(§2) The relative estimate of the mRNA levels of the genes of Table 2 were calculated from the PCR progression curve (fluorescence vs. cycle), where the cycle threshold or Ct was determined from when the fluorescence signal begins to increase exponentially. Thus to calculate the difference of relative expression of the normal and polycystic human cholangiocytes, the data obtained were analysed following the modified method of Livak and Schmittgen (Livak K J, et al. Methods 2001; 25:402), according to the following equation:
(§3) Relative values=1.8^(polycystic or normal cholangiocyte GAPDH−polycystic or normal cholangiocyte GEN)
(§4) Where the superscripts “GAPDH polycystic or normal cholangiocytes” and “Gene polycystic or normal cholangiocytes” correspond to the Ct for GAPDH and for each studied gene. The value of 1.8 (in place of 2) was used because it is assumed that the real efficiency of each amplification cycle is around 80% instead of 100%.
(§5) To analyse the effect of various stimuli on the metalloproteolytic activity of normal and polycystic human cholangiocytes cultures, a protocol similar to that described before in Example 2 was followed, but in this case the incubation of the cells was with quiescent medium (i.e. DMEM/F12, […]) in the presence of the corresponding stimulus (Table 3). Next, the same procedure as described for the analysis of basal metalloproteolytic activity was followed as described in Example 2.
(§6) Taking into account the increase in metalloproteolytic activity induced by interleukins 6 and 8 and also the oestrogen 17β-estradiol in human cholangiocytes in culture, this was further investigated to determine if the increase in activity was correlated with an increase in gene expression at the level of mRNA of the various MMPs.

Assay [2] deals with polycystic human cholangiocytes. Described as above. Particulars: for expression of MMP-2 (mRNA): FIG. 10; for expression of MMP-3 (mRNA): FIG. 11; for expression of MMP-7 (mRNA): FIG. 12; for expression of MMP-10 (mRNA): FIG. 13; for expression of MMP-11 (mRNA): FIG. 14; for expression of MMP-13 (mRNA): FIG. 15; for expression of MMP-15 (mRNA): FIG. 16; for expression of MMP-17 (mRNA): FIG. 17; for expression of MMP-27 (mRNA): FIG. 18. Here is the method:
as §1, §2, §3, §4, §5, §6

Assay [3] has as its system normal human cholangiocytes. Kind of assay: Metalloproteolytic activity of culture supernatants, ES001 fluorogenic peptide cleavage. Particulars: for metalloproteolytic activity in presence of stimulus: normal cholangiocytes vs basal, Table 3 final concentration: IL-6, IL-8 50 ng/ml, 17β-estradiol 1 nM/ml, VEGF, EGF, ENA-78, GRO-α 10 ng/ml, HGF 20 ng/ml, FIG. 9. Here is the method:
(§7) Metalloproteolytic or metalloprotease activity was measured in supernatants of cultures of normal human cholangiocytes and polycystic human cholangiocytes by an assay based on the cleavage of the ES001 fluorogenic synthetic peptide (R&D Systems Minneapolis, Minn., USA) that emits fluorescence proportional to metalloproteolytic activity. The substrate Mca-Pro-Leu-Gly-Leu-Dpa-Ala-Arg-NH2 [Mca: (7-Methoxycoumarin-4-yl)acetyl, Dpa: N-3-(2,4-Dinitrophenyl)-L-2,3-diaminopropionyl] (Knight C G, et al. FEBS Letters 1992; 296:263) is lysed between glycine and leucine by the action of the MMPs, especially MMP-1 (collagenase 1), MMP-2 (gelatinase A), MMP-7 (matrilysin), MMP-8 (collagenase 2), MMP-9 (gelatinase B), MMP-12 (macrophage elastase), MMP-13 (collagenase 3), MMP-14 (MT1-MMP), MMP-15 (MT2-MMP) and MMP-16 (MT3-MMP).
(§8) The basal metalloproteolytic activity of normal human cholangiocyte and polycystic human cholangiocytes cultures was determined by trypsinising the contents of 250 ml flasks and counting the number of cells in an inverted optical microscope using a Neubauer camera and a ½ dilution of the cell solution with trypan blue (Sigma). Next, 300,000 cells were seeded in each well of a 6-well plate and incubated with enriched DMEM/F-12 medium for 24 hours. After this time, the cells were washed with PBS and the culture medium changed for 2 ml of quiescent medium (DMEM/F-12, 1% FBS and 1% P/S) and incubated for 6 hours at 37° C./5% CO2. The supernatant was collected from each well and centrifuged at 4° C. for 10 minutes at 1,500 rpm to remove the dead cells present in the supernatant. The supernatant was concentrated 50 times using a 15 kDa (Millipore) Amicon Ultra concentrator. Next the concentrated supernatant was incubated for 2 hours at 37° C. with the ES001 fluorogenic peptide at a final concentration of 10 μM. Also, GM6001 (a global MMP inhibitor) and aprotinin (a global inhibitor of serine proteases) (both from Sigma-Aldrich) were used as controls of the specificity of the analysis of MMP activity in the assay. Recombinant MMP-10 (kindly provided by Dr. José Antonio Rodriguez Garcia, Laboratorio de Ateroesclerosis e Inflamación del CIMA, Universidad de Navarra) was used as a positive control and DMEM/F-12 medium without serum was used as the negative control. The fluorescence determination was kinetically measured in a Spectra MAX GeminiXS (Molecular Devices Sunnyvale, Calif., USA) spectrophotometer at excitation-emission wavelengths of 320-405 nm. The fluorescence intensity emitted by the culture medium was extracted from the metalloproteolytic activity values. The metalloproteolytic activity was calculated from the tangent to the curve of the fluorescence values using at least six different points over time for each type of cell and condition.
as §5
(§9) Taking into account that: i) basal activity of polycystic human cholangiocytes in culture is greater than that of normal human cholangiocytes and ii) that IL-6 and IL-8 increased the metalloproteolytic activity of normal and polycystic human cholangiocytes, the role of these two cytokines on metalloproteolytic hyperactivity of polycystic human cholangiocytes using antibodies against the receptors of IL-6 (IL6R) and/or IL-8 (CXCR1) was investigated. […]

In assay [4] the test system is polycystic human cholangiocytes. The description is as above. Particulars: for metalloproteolytic activity in presence of stimulus: polycystic cholangiocytes vs basal, Table 3 final concentration: IL-6, IL-8 50 ng/ml, 17β-estradiol 1 nM/ml, VEGF, EGF, ENA-78, GRO-α 10 ng/ml, HGF 20 ng/ml, FIG. 9. The method, then: as §7, §8, §5, §9

For `C[C@]12CC[C@@H]3c4ccc(O)cc4CC[C@H]3[C@@H]1CC[C@@H]2O` [17β-estradiol], in assay [1], the “expression of the other metalloproteinases 1, 8, 9, 14, 16, 18, 24 and 26” value (“expression … 24 and 26” for short) is “did not show changes”; the “expression of MMP-2 (mRNA)” value is listed as “none of these modules induced changes”; the “expression of MMP-3 (mRNA)” value is “increased”; the “expression of MMP-7 (mRNA)” value is on record as “None of the 3 molecules caused changes”. Besides, in assay [1], the “expression of MMP-10 (mRNA)” value was “increased”, the “expression of MMP-11 (mRNA)” value is “increased”, the “expression of MMP-13 (mRNA)” value is given as “increased” and the “expression of MMP-15 (mRNA)” value is recorded as “did not change”. Further, in assay [1], the “expression of MMP-17 (mRNA)” value was “did not change” and the “expression of MMP-27 (mRNA)” value was “did not change”. Besides, in assay [2], the “expression … 24 and 26” value is listed as “did not show changes”; the “expression of MMP-2 (mRNA)” value is “increased”; the “expression of MMP-3 (mRNA)” value is on record as “unchanged”; the “expression of MMP-7 (mRNA)” value is given as “unchanged”. Besides, in assay [2], the “expression of MMP-10 (mRNA)” value is on record as “none of the 3 molecules caused changes”, the “expression of MMP-11 (mRNA)” value is “increased”, the “expression of MMP-13 (mRNA)” value is “increased” and the “expression of MMP-15 (mRNA)” value is listed as “not altered”. Further, in assay [2], the “expression of MMP-17 (mRNA)” value is listed as “increased” and the “expression of MMP-27 (mRNA)” value is “unchanged”. Besides, in assay [3], the “metalloproteolytic activity in presence of stimulus” value is given as “increase”. Further, the “metalloproteolytic activity in presence of stimulus” value in assay [4] is “increase”.

For the compound GROα: growth-regulated oncogene a, the “metalloproteolytic activity in presence of stimulus” value in assay [3] and in assay [4] was “did not induce any change” throughout.

With “IL-6: cytokine interleukin 6, present in the cystic fluid”, in assay [1], the “expression … 24 and 26” value is on record as “did not show changes”; the “expression of MMP-2 (mRNA)” value is given as “none of these modules induced changes”; the “expression of MMP-3 (mRNA)” value is on record as “unchanged”; the “expression of MMP-7 (mRNA)” value is reported as “None of the 3 molecules caused changes”. Further, in assay [1], the “expression of MMP-10 (mRNA)” value is listed as “unchanged”, the “expression of MMP-11 (mRNA)” value is “did not change”, the “expression of MMP-13 (mRNA)” value was “did not cause changes” and the “expression of MMP-15 (mRNA)” value is recorded as “did not change”. Besides, in assay [1], the “expression of MMP-17 (mRNA)” value is reported as “did not change” and the “expression of MMP-27 (mRNA)” value is on record as “did not change”. Besides, in assay [2], the “expression … 24 and 26” value is “did not show changes”; the “expression of MMP-2 (mRNA)” value is on record as “increased”; the “expression of MMP-3 (mRNA)” value is reported as “increased”; the “expression of MMP-7 (mRNA)” value was “increased”. Moreover, in assay [2], the “expression of MMP-10 (mRNA)” value is “none of the 3 molecules caused changes”, the “expression of MMP-11 (mRNA)” value was “increased”, the “expression of MMP-13 (mRNA)” value is “did not cause changes” and the “expression of MMP-15 (mRNA)” value is reported as “increased”. In addition, in assay [2], the “expression of MMP-17 (mRNA)” value was “increased” and the “expression of MMP-27 (mRNA)” value was “increased”. Also, the “metalloproteolytic activity in presence of stimulus” value in assay [3] is recorded as “increase”. In addition, the “metalloproteolytic activity in presence of stimulus” value in assay [4] was “increase”.

Regarding `CC1=C(/C=C/C(C)=C/C=C/C(C)=C\C(=O)O)C(C)(C)CCC1` [13-cis-retinoic acid], the “basal metalloproteolytic activity in presence of inhibitor” value in assay [3] (normal cholangiocytes, 13-cis-retinoic acid 10 μM/ml or Marimastat 200 μM/ml, p<0.01, FIG. 21) was “inhibited”; in assay [4] (polycystic cholangiocytes, 13-cis-retinoic acid 10 μM/ml or Marimastat 200 μM/ml, p<0.01, FIG. 21) it was “inhibited”.

Take VEGF: the “metalloproteolytic activity in presence of stimulus” value in assay [3] and in assay [4] was “did not induce any change” in each case.

For the compound “ENA-78: epithelial neutrophil-activating peptide 78”, the “metalloproteolytic activity in presence of stimulus” value in assay [3] and in assay [4] was “did not induce any change” each time.

As to HGF: hepatocyte growth factor, the “metalloproteolytic activity in presence of stimulus” value in assay [3] and in assay [4] was “did not induce any change” each time.

Turning to EGF: epidermal growth factor, the “metalloproteolytic activity in presence of stimulus” value in assay [3] and in assay [4] was “did not induce any change” throughout.
